From ChEMBL document CHEMBL1124317, “Rationale for the synthesis and preliminary biological evaluation of highly active new antitumor nitrosoureido sugars” (J Med Chem, 1989)

What was measured:
Assay type in all cases: functional
Mus musculus [1] = experiment: The number of L1210 leukemia mice survived after 60 days with compound injected by a dose of 30 mg/kg intraperitoneally; 9/10; conditions: route intraperitoneal
Mus musculus [2] = experiment: The number of L1210 leukemia mice survived after 30 days with compound injected by a dose of 5 mg/kg intraperitoneally; 8/8; conditions: route intraperitoneal
Mus musculus [3] = experiment: The number of L1210 leukemia mice survived after 60 days with compound injected by a dose of 5 mg/kg intraperitoneally; 2/10; conditions: route intraperitoneal
Mus musculus [4] = experiment: The number of B16 Melanocarcinoma mice survived after 30 days with compound injected by a dose of 20 mg/kg intraperitoneally; 10/10; conditions: route intraperitoneal
[5] = Mortality range of the mice with B16 Melanocarcinoma treated with 5 mg/kg of dose intraperitoneally with no of mice survived/no of mice treated; 0/10; conditions: route intraperitoneal
[6] = Mortality range of the mice with L1210 leukemia treated with 10 mg/kg of dose intraperitoneally with no of mice survived/no of mice treated; 0/10; conditions: route intraperitoneal
[7] = Mortality range of the mice with L1210 leukemia treated with 1.25 mg/kg of dose intraperitoneally with no of mice survived/no of mice treated; 0/8; conditions: route intraperitoneal
[8] = Mortality range of the mice with B16 Melanocarcinoma treated with 10 mg/kg of dose intraperitoneally with no of mice survived/no of mice treated; 0/10; conditions: route intraperitoneal
Mus musculus [9] = experiment: Median survival time of the non surviving mice; treated with 20 mg/kg of compound in olive oil to mice with B16 Melanocarcinoma; 12-47
Mus musculus [10] = experiment: The number of L1210 Leukemia mice survived after 60 days with compound in olive oil injected by a dose of 20 mg/kg intraperitoneally; 7/15; conditions: route intraperitoneal
Mus musculus [11] = experiment: Median survival time of the non surviving mice; treated with 20 mg/kg of compound in olive oil to mice with L1210 leukemia tumor; […]
[12] = Mortality range of the mice with L1210 leukemia treated with 10 mg/kg of dose intraperitoneally with no of mice survived/no of mice treated; 0/8; conditions: route intraperitoneal
Mus musculus [13] = experiment: The number of L1210 leukemia mice survived after 30 days with compound injected by a dose of 10 mg/kg intraperitoneally; 9/10; conditions: route intraperitoneal
Mus musculus [14] = experiment: Median survival time of the non surviving mice; treated with 5 mg/kg of compound to mice with L1210 leukemia; 11-32
Mus musculus [15] = experiment: Median survival time of the non surviving mice; treated with 2.5 mg/kg of compound to mice with L1210 leukemia; 40-54
[16] = Mortality range of the mice with L1210 leukemia treated with 2.5 mg/kg of dose intra peritoneally with no of mice survived/no of mice treated; 0/10
Mus musculus [17] = experiment: The number of L1210 leukemia mice survived after 60 days with compound injected by a dose of 20 mg/kg intraperitoneally; 10/10; conditions: route intraperitoneal
Mus musculus [18] = experiment: The number of L1210 leukemia mice survived after 30 days with compound injected by a dose of 2.5 mg/kg intraperitoneally; 0/10; conditions: route intraperitoneal
Mus musculus [19] = experiment: The number of L1210 leukemia mice survived after 30 days with compound injected by a dose of 10 mg/kg intraperitoneally; 8/8; conditions: route intraperitoneal
Mus musculus [20] = experiment: The number of B16 Melanocarcinoma mice survived after 60 days with compound injected by a dose of 10 mg/kg intraperitoneally; 3/10; conditions: route intraperitoneal
Mus musculus [21] = experiment: Anti tumor activity l when treated to mice with B16 Melanocarcinoma with 5 mg/kg dose of compound intraperitoneally was expressed as percent of treated to control (T/C %); conditions: route intraperitoneal
Mus musculus [22] = experiment: The number of L1210 leukemia mice survived after 60 days with compound injected by a dose of 2.5 mg/kg intraperitoneally; 0/10; conditions: route intraperitoneal
Mus musculus [23] = experiment: Median survival time of the non surviving mice; treated with 2.5 mg/kg of compound to mice with L1210 leukemia; 11-14
Mus musculus [24] = experiment: The number of L1210 leukemia mice survived after 30 days with compound injected by a dose of 5 mg/kg intraperitoneally; 3/10; conditions: route intraperitoneal
Mus musculus [25] = experiment: The number of L1210 leukemia mice survived after 30 days with compound injected by a dose of 0.625 mg/kg intraperitoneally; 0/8; conditions: route intraperitoneal
Mus musculus [26] = experiment: The number of Lewis lung mice survived after 30 days with compound in olive oil injected by a dose of 20 mg/kg intraperitoneally; 20/20; conditions: route intraperitoneal
Mus musculus [27] = experiment: The number of B16 melanocarcinoma mice survived after 30 days with compound in olive oil injected by a dose of 20 mg/kg intraperitoneally; 13/20; conditions: route intraperitoneal
Mus musculus [28] = experiment: The number of L1210 leukemia mice survived after 30 days with compound injected by a dose of 20 mg/kg intraperitoneally; 10/10; conditions: route intraperitoneal

For `CO[C@@H]1C[C@@H](NC(=O)N(CCCl)N=O)[C@H](O)[C@@H](CO)O1` [ECOMUSTINE], the Survivals (Mus musculus [1]) was 9, the Survivals (Mus musculus [2]) was 8 and the Survivals (Mus musculus [3]) was 2. The Survivals (Mus musculus [4]) was 10, the Ratio [5] was 0 and the Ratio [6] was 0. It also gave a Ratio [7] of 0, a Ratio [8] of 0 and a Median survival time (Mus musculus [9]) of 33.33. For the same compound, the Survivals (Mus musculus [10]) was 7, the Median survival time (Mus musculus [11]) was 57.5 and the Ratio [12] was 0. For the same compound, the Survivals (Mus musculus [13]) was 9, the Median survival time (Mus musculus [14]) was 15.4 and the Median survival time (Mus musculus [15]) was 43.2. The Ratio [16] was 0, the Survivals (Mus musculus [17]) was 10 and the Survivals (Mus musculus [18]) was 0. For the same compound, the Survivals (Mus musculus [19]) was 8, the Survivals (Mus musculus [20]) was 3 and the T/C (Mus musculus [21]) was 203%. The Survivals (Mus musculus [22]) was 0, the Median survival time (Mus musculus [23]) was 12.9 and the Survivals (Mus musculus [24]) was 3. For the same compound, the Survivals (Mus musculus [25]) was 0, the Survivals (Mus musculus [26]) was 20 and the Survivals (Mus musculus [27]) was 13. It also gave a Survivals (Mus musculus [28]) of 10.
